Experimental data: patent publication EP0535528A1, “Antibacterial 5-Nitro-1-methyl-imidazolyl-3-terbutyl-2-hydroxy-aryl-carbinols” (EURORESEARCH S.r.L., priority 1991, dated 1993)
≈ marks a conversion by molar mass, not a printed value.

What was measured:
Salmonella typhimurium = experiment: Ames test, mutagenic activity; format: cell-based
[1] = Direct mutation test (16 h treatment in the growth step); format: cell-based
Method: The tests are carried out on the compound EU11100 with or without metabolic activity for a treatment period of 16 h in the growth step. The used concentrations are 0.25-0.50 mg/ml without metabolic activation and 0.075-0.150 mg/ml with metabolic activation.

[2] = solubility of the isolated product; format: physicochemical
Helicobapter pylori [3] = experiment: Minimal inhibiting concentration (agar dilution); format: cell-based
Method: Substances under examination: EU11100, EU11102, EU11103, EU11104. Comparison substance: Metronidazole Solubilization of the substances: All the substances to be studied are dissolved at room temperature in DMSO. […] 10 strains of Helicobapter pylori are used of recent clinical isolation […] The sowing of the bacteria, prepared as described in the preceding test is carried out by means a "multi-point inoculator". After 48 hours incubation under the condition described in the preceding test, the plates are examined and the Minimal Inhibiting Concentration is evaluated, namely that dose corresponding to growth absence.

Helicobapter pylori [4] = experiment: Inhibition halos of the bacterial growth (impregnated disks on agar); format: cell-based
Method: Comparison substance: Metronidazole Solubilization of the substances : All the substances to be studied are dissolved at room temperature in DMSO.
Some commercially available antibiogram disks are so impregnated with the above mentioned compounds that each disk has concentration equal to 10, 1, 0.1, 0.01 µg.
10 strains of Helicobapter pylori are used of recent clinical isolation.
Columbia Blood Agar Base is used, containing 5% of defibrinated horse blood, 2 % of calf serum, 2 vials of Vitox per liter of medium and Vancomicine (10 µg/ml) Trimetoprim lactate(5 µg/ml) and Polimixin B (2.5 U/ml).
0.1 ml of a suspension of the different used strains are uniformly distributed onto Petri plates, containing 20 ml of Columbia Blood Agar base, obtained by taking a sample, by means of a platinum loop, of different colonies from a 48 hours culture, grown in anaerobiosis jars with "Gas Pack", without a catalyst and diluted into a physiological solution.
4 disks per plate, previously impregnated with the substances under examination, are then placed onto the agar layer of each plate.
After 48 hours of anaerobiosis incubation, as above described, the inhibition halos of the bacterial growth, produced by the different activity of the substances inside the agar, are evaluated.

[5] = section A (without), 0.25 mg/ml
[6] = section A (without), 0.50 mg/ml

**Q.** For `COc1cc(C(O)c2ncc([N+](=O)[O-])n2C)c(O)c(C(C)(C)C)c1` (stereo not drawn) [EU11100, 5-nitro-1-methyl-imidazolyl-3-terbutyl-2-hydroxy-5-methoxy-phenyl-carbinol], which “toxicity to the Salmonella strains” value (Salmonella typhimurium; 1000 µg/capsule, in the absence of metabolic activation) is on record?
**A.** toxic

**Q.** What about the mutagenic activity (Salmonella typhimurium; general statement) of the same compound?
**A.** practically no mutagenic activity

**Q.** And the “doubling of the base value” (Salmonella typhimurium; strain TA-100, without metabolic activation, 500 µg/capsule)?
**A.** 1.95 times

**Q.** What about the “signal in other strains” value (Salmonella typhimurium; strains other than TA-100, without metabolic activation) of the same compound?
**A.** do not give rise to any particular signal

**Q.** And the “spontaneous reversion of Salmonella” value (Salmonella typhimurium; with metabolic activation, 250, 500 and 1000 µg/capsule)?
**A.** does not increase the spontaneous reversion of Salmonella

**Q.** What about the “Frequency of: Mutation” value [1, 5] of the same compound?
**A.** 1.60

**Q.** What about the “Survival (%)” value [1, 5] of the same compound?
**A.** 71.1%

**Q.** And the “Frequency of: Mutation” value [1, 6]?
**A.** 0.00

**Q.** What about the “Survival (%)” value [1, 6] of the same compound?
**A.** 36.4%

**Q.** And the “Frequency of: Mutation” value ([1]; section B (with), 0.075 mg/ml)?
**A.** 2.11

**Q.** What about the “Survival (%)” value ([1]; section B (with), 0.075 mg/ml) of the same compound?
**A.** 89.9%

**Q.** And the “Frequency of: Mutation” value ([1]; section B (with), 0.150 mg/ml)?
**A.** 3.22

**Q.** And the “Survival (%)” value ([1]; section B (with), 0.150 mg/ml)?
**A.** 29.5%

**Q.** What about the solubility [2] of the same compound?
**A.** Soluble in CH₃OH, benzene, acetone, ethyl ether; insoluble in water and ligroin.

**Q.** What about the MIC50 (Helicobapter pylori [3]; 10 strains) of the same compound?
**A.** 0.03 µg/mL (≈ 0.0895 µM)

**Q.** And the MIC90 (Helicobapter pylori [3]; 10 strains)?
**A.** 0.06 µg/mL (≈ 0.179 µM)

**Q.** And the MIC range (Helicobapter pylori [3]; 10 strains)?
**A.** 0.015 to 0.016 µg/mL

**Q.** And the MIC values (Helicobapter pylori [3]; in words, compared with Metronidazole)?
**A.** very low MIC values

**Q.** And the MIC (Helicobapter pylori [3]; strain 1)?
**A.** 0.12 µg/mL (≈ 0.358 µM)

**Q.** And the MIC (Helicobapter pylori [3]; strain 2)?
**A.** 0.03 µg/mL (≈ 0.0895 µM)

**Q.** What about the MIC (Helicobapter pylori [3]; strain 3) of the same compound?
**A.** 0.03 µg/mL (≈ 0.0895 µM)

**Q.** What about the MIC (Helicobapter pylori [3]; strain 4) of the same compound?
**A.** 0.03 µg/mL (≈ 0.0895 µM)

**Q.** What about the MIC (Helicobapter pylori [3]; strain 5) of the same compound?
**A.** 0.015 µg/mL (≈ 0.0447 µM)

**Q.** And the MIC (Helicobapter pylori [3]; strain 6)?
**A.** 0.03 µg/mL (≈ 0.0895 µM)

**Q.** And the MIC (Helicobapter pylori [3]; strain 7)?
**A.** 0.06 µg/mL (≈ 0.179 µM)

**Q.** What about the MIC (Helicobapter pylori [3]; strain 8) of the same compound?
**A.** 0.03 µg/mL (≈ 0.0895 µM)

**Q.** And the MIC (Helicobapter pylori [3]; strain 9)?
**A.** 0.03 µg/mL (≈ 0.0895 µM)

**Q.** And the MIC (Helicobapter pylori [3]; strain 10)?
**A.** 0.03 µg/mL (≈ 0.0895 µM)

**Q.** What about the “activity against the Helicobapter pylori strains used” value (Helicobapter pylori [4]; 10 strains, 0.1 µg/disk) of the same compound?
**A.** still able to produce halos against all the strains used

**Q.** What about the “Inhibition halo (mm), Average” value (Helicobapter pylori [4]; average of 10 strains, 10 µg/disk) of the same compound?
**A.** 43.7 mm

**Q.** And the “Inhibition halo (mm) at the concentration (µg/disk)” value (from here on “Inhibition halo (mm) … (µg/disk)”) (Helicobapter pylori [4]; strain 1, 0.01 µg/disk)?
**A.** 0 mm

**Q.** And the “Inhibition halo (mm) … (µg/disk)” value (Helicobapter pylori [4]; strain 1, 0.1 µg/disk)?
**A.** 26 mm

**Q.** And the “Inhibition halo (mm) … (µg/disk)” value (Helicobapter pylori [4]; strain 1, 1 µg/disk)?
**A.** 35 mm

**Q.** What about the “Inhibition halo (mm) … (µg/disk)” value (Helicobapter pylori [4]; strain 1, 10 µg/disk) of the same compound?
**A.** 50 mm

**Q.** What about the “Inhibition halo (mm) … (µg/disk)” value (Helicobapter pylori [4]; strain 2, 0.01 µg/disk) of the same compound?
**A.** 0 mm

**Q.** And the “Inhibition halo (mm) … (µg/disk)” value (Helicobapter pylori [4]; strain 2, 1 µg/disk)?
**A.** 30 mm

**Q.** What about the “Inhibition halo (mm) … (µg/disk)” value (Helicobapter pylori [4]; strain 2, 10 µg/disk) of the same compound?
**A.** 44 mm

**Q.** What about the “Inhibition halo (mm) … (µg/disk)” value (Helicobapter pylori [4]; strain 3, 0.01 µg/disk) of the same compound?
**A.** 0 mm

**Q.** What about the “Inhibition halo (mm) … (µg/disk)” value (Helicobapter pylori [4]; strain 3, 0.1 µg/disk) of the same compound?
**A.** 14 mm

**Q.** And the “Inhibition halo (mm) … (µg/disk)” value (Helicobapter pylori [4]; strain 3, 1 µg/disk)?
**A.** 30 mm

**Q.** What about the “Inhibition halo (mm) … (µg/disk)” value (Helicobapter pylori [4]; strain 3, 10 µg/disk) of the same compound?
**A.** 38 mm

**Q.** And the “Inhibition halo (mm) … (µg/disk)” value (Helicobapter pylori [4]; strain 4, 0.01 µg/disk)?
**A.** 0 mm

**Q.** What about the “Inhibition halo (mm) … (µg/disk)” value (Helicobapter pylori [4]; strain 4, 0.1 µg/disk) of the same compound?
**A.** 26 mm

**Q.** What about the “Inhibition halo (mm) … (µg/disk)” value (Helicobapter pylori [4]; strain 4, 1 µg/disk) of the same compound?
**A.** 35 mm

**Q.** What about the “Inhibition halo (mm) … (µg/disk)” value (Helicobapter pylori [4]; strain 4, 10 µg/disk) of the same compound?
**A.** 50 mm

**Q.** And the “Inhibition halo (mm) … (µg/disk)” value (Helicobapter pylori [4]; strain 5, 0.01 µg/disk)?
**A.** 0 mm

**Q.** And the “Inhibition halo (mm) … (µg/disk)” value (Helicobapter pylori [4]; strain 5, 0.1 µg/disk)?
**A.** 12 mm

**Q.** What about the “Inhibition halo (mm) … (µg/disk)” value (Helicobapter pylori [4]; strain 5, 1 µg/disk) of the same compound?
**A.** 22 mm

**Q.** And the “Inhibition halo (mm) … (µg/disk)” value (Helicobapter pylori [4]; strain 5, 10 µg/disk)?
**A.** 38 mm

**Q.** What about the “Inhibition halo (mm) … (µg/disk)” value (Helicobapter pylori [4]; strain 6, 0.01 µg/disk) of the same compound?
**A.** 0 mm

**Q.** What about the “Inhibition halo (mm) … (µg/disk)” value (Helicobapter pylori [4]; strain 6, 0.1 µg/disk) of the same compound?
**A.** 22 mm

**Q.** What about the “Inhibition halo (mm) … (µg/disk)” value (Helicobapter pylori [4]; strain 6, 1 µg/disk) of the same compound?
**A.** 34 mm

**Q.** And the “Inhibition halo (mm) … (µg/disk)” value (Helicobapter pylori [4]; strain 6, 10 µg/disk)?
**A.** 48 mm

**Q.** What about the “Inhibition halo (mm) … (µg/disk)” value (Helicobapter pylori [4]; strain 7, 0.01 µg/disk) of the same compound?
**A.** 0 mm

**Q.** What about the “Inhibition halo (mm) … (µg/disk)” value (Helicobapter pylori [4]; strain 7, 0.1 µg/disk) of the same compound?
**A.** 12 mm

**Q.** What about the “Inhibition halo (mm) … (µg/disk)” value (Helicobapter pylori [4]; strain 7, 1 µg/disk) of the same compound?
**A.** 28 mm

**Q.** And the “Inhibition halo (mm) … (µg/disk)” value (Helicobapter pylori [4]; strain 7, 10 µg/disk)?
**A.** 35 mm

**Q.** What about the “Inhibition halo (mm) … (µg/disk)” value (Helicobapter pylori [4]; strain 8, 0.01 µg/disk) of the same compound?
**A.** 0 mm

**Q.** And the “Inhibition halo (mm) … (µg/disk)” value (Helicobapter pylori [4]; strain 8, 0.1 µg/disk)?
**A.** 21 mm

**Q.** What about the “Inhibition halo (mm) … (µg/disk)” value (Helicobapter pylori [4]; strain 8, 10 µg/disk) of the same compound?
**A.** 48 mm

**Q.** What about the “Inhibition halo (mm) … (µg/disk)” value (Helicobapter pylori [4]; strain 9, 0.01 µg/disk) of the same compound?
**A.** 0 mm

**Q.** What about the “Inhibition halo (mm) … (µg/disk)” value (Helicobapter pylori [4]; strain 9, 1 µg/disk) of the same compound?
**A.** 28 mm

**Q.** What about the “Inhibition halo (mm) … (µg/disk)” value (Helicobapter pylori [4]; strain 9, 10 µg/disk) of the same compound?
**A.** 43 mm

**Q.** And the “Inhibition halo (mm) … (µg/disk)” value (Helicobapter pylori [4]; strain 10, 0.01 µg/disk)?
**A.** 0 mm

**Q.** And the “Inhibition halo (mm) … (µg/disk)” value (Helicobapter pylori [4]; strain 10, 0.1 µg/disk)?
**A.** 14 mm

**Q.** What about the “Inhibition halo (mm) … (µg/disk)” value (Helicobapter pylori [4]; strain 10, 10 µg/disk) of the same compound?
**A.** 43 mm
